Consider two compounds from patent US20170305936A1, “SOLID STATE FORMS OF CRISABOROLE” (Pliva Hrvatska d.o.o., priority 2016, published 2017).

Structures are written as SMILES.

Common to all, as to type: physicochemical
Data set [1] in a line: Hygroscopicity (water absorption, European Pharmacopoeia 7.0, chapter 01/2008:51100). Particulars: non-hygroscopic = less than 0.2% (w/w) water absorption after 24 h exposure to 25° C./80% RH. How it is done: As used herein the term non-hygroscopic in relation to crystalline Crisaborole refers to less than 0.2% (w/w) of water absorption after 24 h exposure to 25° C./80% RH, determined according to European Pharmacopoeia 7.0, chapter 01/2008:51100. Water can be for example atmospheric water.

Another data set can be described thus: Solubility in solvents.
Data set [2] is described as follows: Mechanical stability (stress, re-analysis by PXRD). The protocol: Sample after being powdered in a mortar and pestle is applied directly on a silicon plate holder. The X-ray powder diffraction pattern was measured with Philips X'Pert PRO X-ray powder diffractometer, equipped with Cu irradiation source=1.54184 Å (Angstrom), X'Celerator (2.022° 2θ) detector. Scanning parameters: angle range: 3-40 deg., step size 0.0167, time per step 37 s, continuous scan.

Data set [3] is described as follows: Thermodynamic (polymorphic) stability on storage, re-analysis by PXRD. Particulars: for thermodynamic stability (conversion to any other solid state form, by XRPD): up to 50° C./80% RH. How it is done:
Thermodynamic stability in relation to crystalline Crisaborole form I refers to less than 20%, 10%, 5%, 2%, 1%, or 0.5% conversion of crystalline Crisaborole form Ito any other solid state form of Crisaborole after exposure of form Ito conditions of up to 50° C./80% RH, e.g. 2-8° C., 25° C./60% RH, 40° C./75% RH for at least 1 month, as measured by XRPD. In some embodiments, the conversion is 1%-20%, 1%-10% or 1%-5%. […] Thermodynamic stability in relation to crystalline Crisaborole form II refers to less than 20%, 10%, 5%, 2%, 1%, or 0.5% conversion of crystalline Crisaborole form II to any other solid state form of Crisaborole after exposure of form II to conditions of up to 50° C./80% RH, e.g. 25° C./60% RH, 40° C./75% RH for at least 2 months, as measured by XRPD. In some embodiments, the conversion is 1%-20%, 1%-10% or 1%-5%. Sample after being powdered in a mortar and pestle is applied directly on a silicon plate holder. The X-ray powder diffraction pattern was measured with Philips X'Pert PRO X-ray powder diffractometer, equipped with Cu irradiation source=1.54184 Å (Angstrom), X'Celerator (2.022° 2θ) detector. Scanning parameters: angle range: 3-40 deg., step size 0.0167, time per step 37 s, continuous scan. Samples of Crisaborole form I were stored for 2 weeks at 25° C. 2-8° C., and for 1 month at different stress conditions: 25° C./60% RH, 40° C./75% RH, 50° C. and 50° C./80% RH.

A short description of data set [4]: Chemical stability on storage (impurity profile, HPLC). The protocol:
HPLC analysis was performed on instrument Agilent 1290, with experimental conditions being set as follows: Samples of Crisaborole form I were stored for 2 weeks at 25° C. 2-8° C., and for 1 month at different stress conditions: 25° C./60% RH, 40° C./75% RH, 50° C. and 50° C./80% RH.

Data set [5] is described as follows: Stability at high humidity levels. How it is done:
Moreover, Form I is stable at high humidity levels (e.g. room temperature at 100% RH for 5-7 days), including after milling procedure (e.g. feeding pressure: 6.5 bar; grinding pressure: 6 bar; rotation speed: 300 rpm).

Turning to `N#Cc1ccc(Oc2ccc3c(c2)COB3O)cc1` [Crisaborole form I, 5-(4-Cyanophenoxy)-1,3-dihydro-1-hydroxy-2,1-benzoxaborole], in data set [1], the hygroscopicity entry is “non-hygroscopic”. Besides, in “Solubility in solvents” (N,N-dimethylformamide), the “solubility in N,N-dimethylformamide” value is “very soluble”. In the data set “Solubility in solvents” (ethanol), the solubility in ethanol entry was “freely soluble”. Moreover, the solubility in isopropanol result in the data set “Solubility in solvents” (isopropanol) is “freely soluble”. In addition, in the data set “Solubility in solvents” (propylene glycol), the “solubility in propylene glycol” value is “freely soluble”. The “mechanical stability, PXRD after stress” value in data set [2] (pressure of 9 tons on 132.67 mm^2 for 2 min) is listed as “unchanged”; in data set [2] (pressure of 9 tons on 132.67 mm^2 for 2 min, listed as Form I), “resistant to mechanical stress”; in data set [2] (strong grinding using mortar and pestle for 2 min) it was “unchanged”; in data set [2] (strong grinding using mortar and pestle for 2 min, listed as Form I), “resistant to mechanical stress”; in data set [2] (strong grinding with a drop of solvent (e.g. H2O, EtOH) using mortar and pestle for 2 min), “unchanged”; in data set [2] (strong grinding with a drop of solvent (e.g. H2O, EtOH) using mortar and pestle for 2 min, listed as Form I), “resistant to mechanical stress”. Besides, the PXRD after storage result in data set [3] (1 month at 25° C./60% RH), in data set [3] (1 month at 40° C./75% RH), in data set [3] (1 month at 50° C.), in data set [3] (1 month at 50° C./80% RH), in data set [3] (2 weeks at 2-8° C.) and in data set [3] (2 weeks at 25° C.) was “unchanged” in each case. The “thermodynamic stability (conversion to any other solid state form, by XRPD)” value in data set [3] (e.g. 2-8° C., 25° C./60% RH, 40° C./75% RH for at least 1 month) is “good thermodynamic stability”; in data set [3] (e.g. 2-8° C., 25° C./60% RH, 40° C./75% RH for at least 1 month, listed as Crystalline form I of Crisaborole) it was “thermodynamically stable”. Further, in data set [4], the chemical stability entry is “chemically stable”. For the same compound, the “impurity profile after storage” value in data set [4] (1 month at 25° C./60% RH), in data set [4] (1 month at 40° C./75% RH), in data set [4] (1 month at 50° C.), in data set [4] (1 month at 50° C./80% RH), in data set [4] (2 weeks at 2-8° C.) and in data set [4] (2 weeks at 25° C.) was “no change in impurity profile” throughout. Moreover, the “stability at high humidity levels after milling procedure” value in data set [5] (after milling (feeding pressure 6.5 bar; grinding pressure 6 bar; rotation speed 300 rpm)) is “stable”. Besides, the “stability at high humidity levels” value in data set [5] (room temperature at 100% RH for 5-7 days) is recorded as “stable”.

As for `N#Cc1ccc(Oc2ccc3c(c2)COB3O)cc1` [Crisaborole form II, 5-(4-Cyanophenoxy)-1,3-dihydro-1-hydroxy-2,1-benzoxaborole], the “thermodynamic stability (conversion to any other solid state form, by XRPD)” value was “good thermodynamic stability” in data set [3] (e.g. 25° C./60% RH, 40° C./75% RH for at least 2 months) and “thermodynamically stable” in data set [3] (e.g. 25° C./60% RH, 40° C./75% RH for at least 2 months, listed as Crystalline form II of Crisaborole). Further, in data set [5] (high humidity), the “stability to polymorphic conversions under high humidity” value is “stable”.
